Values of other authors, collected in patent publication US20070021506A1, “Stress relieving composition” (Ajinomoto Co., Inc., priority 2004, published 2007).
Like-named read-outs stand apart in the source and are kept apart here.

What was measured:
[1] = biological target: T1, 5HT-4 receptor (Rattus norvegicus, UniProt Q62758)
T1 construct: suppressed anxiety disorder of rats induced by a 5HT-4 receptor agonist; from tissue; host or cells: living rats (whole animal; oral L-lysine, s.c. agonist)

[2] = system: benzodiazepine receptor; details: Non-patent document 9
[3] = biological target: T2, 5-HT4 receptor (Cavia porcellus, UniProt O70528); details: in vitro
T2 construct: from tissue; host or cells: guinea pig ileum
T2 sequence (O70528 whole entry): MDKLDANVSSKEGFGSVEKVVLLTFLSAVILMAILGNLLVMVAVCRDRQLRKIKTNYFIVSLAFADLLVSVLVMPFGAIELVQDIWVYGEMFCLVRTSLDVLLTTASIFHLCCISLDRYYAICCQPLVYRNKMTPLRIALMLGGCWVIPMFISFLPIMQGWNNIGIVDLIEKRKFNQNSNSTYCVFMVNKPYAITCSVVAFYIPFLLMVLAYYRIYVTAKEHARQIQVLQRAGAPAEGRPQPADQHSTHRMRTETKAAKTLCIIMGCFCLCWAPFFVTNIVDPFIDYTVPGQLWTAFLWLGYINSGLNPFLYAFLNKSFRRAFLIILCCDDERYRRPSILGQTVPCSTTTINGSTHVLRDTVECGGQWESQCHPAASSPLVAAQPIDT

T1 sequence (Q62758 whole entry): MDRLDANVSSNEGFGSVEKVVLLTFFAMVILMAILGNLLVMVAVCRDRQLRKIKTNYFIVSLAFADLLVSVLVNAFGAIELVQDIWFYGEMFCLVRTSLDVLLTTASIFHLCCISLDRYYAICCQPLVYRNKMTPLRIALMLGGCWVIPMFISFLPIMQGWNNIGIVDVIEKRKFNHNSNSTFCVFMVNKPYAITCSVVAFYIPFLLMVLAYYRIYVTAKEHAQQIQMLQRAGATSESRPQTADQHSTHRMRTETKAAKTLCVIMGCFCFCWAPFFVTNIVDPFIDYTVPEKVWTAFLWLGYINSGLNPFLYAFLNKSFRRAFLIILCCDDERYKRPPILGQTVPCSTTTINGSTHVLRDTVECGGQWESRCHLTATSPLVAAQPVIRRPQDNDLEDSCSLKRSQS

N[C@@H](Cc1ccc(O)cc1)C(=O)O [Tyr, tyrosine]
mood (normal subjects exposed to mental stress): improved the mood significantly
effect in terms of mood criterion (patients with depression): a significant effect in terms of mood criterion was not observed

NCCCC[C@H](N)C(=O)O [L-lysine]
anxiety disorder of rats induced by a 5HT-4 receptor agonist ([1]; 1 g/kg, p.o., agonist 3.0 mmol/l s.c.): significantly suppressed
action at 5HT-4 receptor ([1]; rat, in vivo): partially serves as a 5HT-4 receptor antagonist
action at benzodiazepine receptor [2]: benzodiazepine receptor agonist
5-HT-induced contraction of the guinea pig ileum ([3]; 0.07 mmol/dl, P<0.05): blocked
5-HT-induced contraction of the guinea pig ileum ([3]; 0.7 mmol/dl, P<0.01): blocked

N[C@@H](Cc1c[nH]c2ccccc12)C(=O)O [Trp, tryptophan]
mood enhancement effect (clinical study conducted recently (Non-patent document 3)): could not be fully supported
stress-induced mood (comparative clinical study, taken alone or together with carbohydrates): relieved
